In brackets after ≈: the same amount, converted by molar mass. Read-outs that look alike come from different tables or passages of the source. *1 amine or outer side, *2 acyl side, *3 side chain or, on linkers, in order; H or OH if unused. Where a SMILES comes first, the peptide text is derived from it. Bridges are numbered along the chain shown (N, C = ends). [ ]: non-standard residue; d: D form. The star is where a group is joined. hTyr(3S-OH,4S-OH,3'-OSO3H) = N[C@H](C(=O)O)[C@H](O)[C@@H](O)c1ccc(O)c(OS(=O)(=O)O)c1; Orn(4R-OH,5R-OH) = O=C([C@H](C[C@@H](O)[C@@H](O)N[*:3])N[*:1])[*:2]; Pro(3S-OH,4S-Me) = C[C@H]1CN[C@H](C(=O)O)[C@H]1O; X1 = CCCCCOc1ccc(-c2cc(-c3ccc(C(=O)*)cc3)no2)cc1; Gln(3R-OH) = NC(=O)C[C@@H](O)[C@H](N)C(=O)O; Hyp = O=C(O)[C@@H]1C[C@@H](O)CN1

We go through nine compounds from publication PMC10198811 (The Pediatric infectious disease journal, 2023).

Data set [1] has as its system F. solani isolate. In words: Antifungal susceptibility testing. Format: cell-based, F. solani complex. Conditions: Fusarium solani.
The conditions of data set [2]: cited from earlier work.
The test system of a further data set is CYP2C19. Conditions: compared to ilaprazole and pantoprazole; cited from earlier work.
For data set [3], the system named is F. solani isolate. In words: In vitro synergy testing of the voriconazole and micafungin combination. In kind it is cell-based, F. solani complex. To be noted: tested at University of Texas Health Science Center in San Antonio.
The conditions of data set [4]: cited from earlier work. The source holds these as a separate data set.
For the next data set, the system named is Fusarium spp. To be noted: cited from earlier work.

For `C[C@@H]1[C@H](O)[C@@H](C)/C=C/C=C/C=C/C=C/C=C/C=C/C=C/[C@H](O[C@@H]2O[C@H](C)[C@@H](O)[C@H](N)[C@@H]2O)C[C@@H]2O[C@](O)(C[C@@H](O)C[C@@H](O)[C@H](O)CC[C@@H](O)C[C@@H](O)CC(=O)O[C@H]1C)C[C@H](O)[C@H]2C(=O)O` [amphotericin B], the MIC in the data set with F. solani isolate [1] amounted to 8 µg/mL (≈ 8.66 µM).

Consider `CN/C(=N/CCSCc1nc[nH]c1C)NC#N` [cimetidine], for which the Toxicity result in data set [2] is “central nervous system effects and anti-androgenic side effects”.

In the case of `COc1ccc2nc([S@@+]([O-])Cc3ncc(C)c(OC)c3C)[nH]c2c1` [esomeprazole], in the data set on CYP2C19, the CYP2C19 inhibitory effect result is on record as “more potent inhibitory effects”.

Regarding `C[C@@H](c1nc(-c2ccc(C#N)cc2)cs1)[C@](O)(Cn1cncn1)c1cc(F)ccc1F` [isavuconazole], the MIC against F. solani isolate [1] was greater than 16 µg/mL.

In the case of `Cc1c(OCC(F)(F)F)ccnc1C[S+]([O-])c1nc2ccccc2[nH]1` (stereo not shown) [lansoprazole], the CYP2C19 inhibitory effect entry in the data set with CYP2C19 is “more potent inhibitory effects”.

Take `CCCCCOc1ccc(-c2cc(-c3ccc(C(=O)N[C@H]4C[C@@H](O)[C@@H](O)NC(=O)[C@@H]5[C@@H](O)[C@@H](C)CN5C(=O)[C@H]([C@H](O)CC(N)=O)NC(=O)[C@H]([C@H](O)[C@@H](O)c5ccc(O)c(OS(=O)(=O)O)c5)NC(=O)[C@@H]5C[C@@H](O)CN5C(=O)[C@H]([C@@H](C)O)NC4=O)cc3)no2)cc1` [micafungin] (X1-[Orn(4R-OH,5R-OH)]T[Hyp][hTyr(3S-OH,4S-OH,3'-OSO3H)][Gln(3R-OH)][Pro(3S-OH,4S-Me)]; lactam 1-C): the Synergy of combination result in the data set with F. solani isolate [3] was “did not reveal synergy”.

`COc1ccc2[nH]c([S+]([O-])Cc3ncc(C)c(OC)c3C)nc2c1` (stereo not shown) [omeprazole]: in data set [4] (voriconazole co-administration), the “Omeprazole AUC with voriconazole compared to absence of co-administration” value is 4 times higher and the “Omeprazole Cmax with voriconazole compared to absence of co-administration” value is 2 times higher. Also, in the data set with CYP2C19, the CYP2C19 inhibitory effect result is “more potent inhibitory effects”.

In the data set with F. solani isolate [1], `CC[C@@H]([C@H](C)O)n1ncn(-c2ccc(N3CCN(c4ccc(OC[C@@H]5CO[C@@](Cn6cncn6)(c6ccc(F)cc6F)C5)cc4)CC3)cc2)c1=O` [posaconazole] came in with an MIC greater than 16 µg/mL.

Turning to `C[C@@H](c1ncncc1F)[C@](O)(Cn1cncn1)c1ccc(F)cc1F` [voriconazole], the MIC with F. solani isolate [1] is 4 µg/mL (≈ 11.5 µM). In addition, the “Increase of voriconazole AUC” value in data set [4] (healthy subjects, with cimetidine 400 mg PO q12h) is given as 23%; in data set [4] (healthy volunteers, with omeprazole 40 mg PO q24h), 40%. Also, in the data set with Fusarium spp., the MIC50 was 8 µg/mL (≈ 22.9 µM). Moreover, the “Repeat imaging of metastatic sites of proven or suspected infection” value in the data set on F. solani complex (6 months after initiation of voriconazole therapy) is listed as “significant interval improvement or resolution of all metastatic sites”. Further, the “Voriconazole-related toxicity (e.g., hepatotoxicity, neurotoxicity)” value in the data set with F. solani complex (~10.7 mg/kg/dose PO q8h for several months, troughs 4 to 6 mcg/mL) was “without any evidence of voriconazole-related toxicity”.
